Source: patent publication US6117845A, “C-linked analogs of N-(4-hydroxyphenyl) retinamide” (Ohio State University Research Foundation, priority 1999, dated 2000)

Key:
MCF7 cells = experiment: Assay for cell growth inhibition, MCF-7 cells, 72 h; assay type: cell-based; conditions: human mammary carcinoma MCF-7 cells, 0.1, 1 or 10 μM, FIG. 1
Protocol: (§1) All-trans retinoic acid (atRA) was purchased from Eastman Kodak, Rochester, N.Y. Stock solutions were prepared in 100% ethanol and concentrations were determined on a Shimadzu UV-2100 spectrophotometer (4-HBR: λmax=380nm, ε=39,891; 4-HPR: λmax=365 nm, ε=47,900; atRA: λmax=340 nm, ε=45,300). Compound purity was assessed using a Waters HPLC-PDA with a 600E solvent delivery system using a Zorbax ODS, 250×4.6 mm, 5 micron column (Phenomenex, Torrance, Calif.). The column was equilibrated in 88% methanol/water with 10 mM ammonium acetate (flow rate of 1 ml/min). 4-HBR eluted at about 18 min., 4-HPR at about 12 min., and atRA at about 8 min with estimated purities of 96%, 100% and 100% respectively. […]
(§2) Cells (100,000 cells) were passed into a 25 cm^3 flask in 10 ml of medium. […] Two 20 μl aliquots were counted from each treatment group on a Nikon Diaphot 200 fluorescent microscope. Four out of five fields were counted on each side of the hemocytometer. Fluorescence was used to count the number of live cells and phase-contrast was used to count the number of total cells. The average number of live cells per field was divided by the total number of cells per field and expressed as a percentage of the control.
The antiproliferative activity of 4-HPR, 4-HBR, and atRA against MCF-7 human mammary tumor cell culture models was determined using the above-described protocol. […]

Acid stability of 4-HBR = assay type: physicochemical; conditions: 0.1 N methanolic HCl at 37° C. for 2 hours
[1] = tested on: serum retinol-binding protein (RBP); experiment: Serum retinol binding protein binding study (competition with tritiated all-trans retinol); conditions: human RBP 0.1 μg/μl, 250 nM all-trans-(3H)-ROL, 4° C., FIG. 3
Protocol: RBP (human) was obtained commercially (Sigma). RBP (0.1 μg/μl) was incubated with 250 nM all-trans-(^3 H)-ROL (approx. 5 Ci/mmole) with and without competing ligands at 4° C. for 3 hours. Tritiated retinoid-labeled protein-containing extracts were treated with dextran-coated charcoal to remove unbound ligand before subjecting samples to sedimentation analysis on 5 to 20% sucrose density gradients. ^14 C-Labeled proteins were included with samples as internal sedimentation standards. Gradients were centrifuged at 257,000 g for 20 hours at 4° C. followed by fractionation and analysis of radioactivity.

LA1-15n cells = experiment: Assay for cell growth inhibition, LA1-15n cells, 48 h; assay type: cell-based; conditions: human neuroblastoma LA1-15n cells, 0.1, 1 or 10 μM, FIG. 2
Protocol: as §1, with “respectively. Retinoids were blanketed with argon and stored at -70° C. until use.” for “respectively.”
as §2, with “control. […]” for “control.”

stability under acidic conditions (Acid stability of 4-HBR): remained intact
SMILES: CC1=C(/C=C/C(C)=C/C=C/C(C)=C/C(=O)Cc2ccc(O)cc2)C(C)(C)CCC1 [compound 16, 4-hydroxybenzyl retinone]
growth inhibition of MCF7 cells (viability, live cells as percentage of control) (MCF7 cells): inhibits the growth of MCF7 cells in a dose-dependant fashion | affinity for serum RBP relative to 4-HPR [1]: binds to serum RBP with less affinity than does 4-HPR | growth inhibition of LA1-15n cells (viability, live cells as percentage of control) (LA1-15n cells): inhibits the growth of LA1-15n cells in a dose-dependant fashion
